{"source": "paper PMC10348910", "about": "“Epigenetic reprogramming of cell cycle genes by ACK1 promotes breast cancer resistance to CDK4/6 inhibitor” (Oncogene, 2023)", "key": {"[1]": {"system": "pY88-H4", "experiment": "immunoprecipitation and immunoblotting for pY88-H4", "type": "cell-based", "conditions": "breast cancer cell lines; overnight", "experimental": "(§1) Fig. 4 ACK1 epigenetically modifies the chromatin landscape by depositing pY88-H4 activating marks, regulating cell cycle genes. A Breast cancer cell lines were treated with (R)-9b overnight and the cell lysates were subjected to immunoprecipitation using pY88-H4 antibody, followed by immunoblotting with H4 antibody. Lysates were also subjected to immunoblotting with total H4 and Actin antibodies, shown in the lower panels. […] B Venn diagrams summarizing the overlap between sites bound by pY88-H4 in vehicle treated and (R)-9b treated MDA-MB-453 cells. […] Breast cancer cells were subjected to ChIP using pY88-H4 antibody followed by qPCR for (D) CCNB1, (E) CCNB2, and (F) CDC20 genes. For (A), representative images of three independent experiments are shown. For (D–F), data are represented as the mean ± SEM. *p < 0.05, **p < 0.01, ***p < 0.001, unpaired two-tailed Student’s t test.\n(§2) Vehicle or (R)-9b (5 µM, overnight in serum free media) treated cells were lysed by sonication in receptor lysis buffer (RLB) and lysates were fractionated by SDS-PAGE, and transferred onto a PVDF membrane (Immobilon). […]"}, "[2]": {"system": "pY284-ACK1", "experiment": "immunoprecipitation and immunoblotting for pY284-ACK1", "type": "cell-based", "conditions": "MDA-MB-231, HCC-1395, Cal148, T47D, MCF7, SKBR3, MDA-MB-453; overnight", "experimental": "Fig. 2 ACK1 regulates breast cancer transcriptome, affecting genes implicated in cell cycle progression. A Chemical structure of (R)-9b. B Breast cancer cell lines were treated with either vehicle or (R)-9b overnight and cell lysates were subjected to immunoprecipitation using ACK1 antibody, followed by immunoblotting with pY284-ACK1 antibody. Lysates were also subjected to immunoblotting with total ACK1 and Actin antibodies, shown in the lower panels. […] C Breast cancer cell lines were treated with varying concentrations of (R)-9b for 96 h and the cell proliferation was measured using Trypan Blue exclusion method. D–H RNA from breast cancer cells treated with vehicle or varying concentrations of (R)-9b overnight, and were subjected to qRT-PCR using CCNB1, CCNB2 and CDC20 primers. Actin or 18S rRNA was used as housekeeping control. For (B), representative images of three independent experiments are shown. For (C), a four parameter, variable slope, non-linear regression curve was computed, representing three independent experiments. For (D–H), data are represented as the mean ± SEM. *p < 0.05, **p < 0.01, ***p < 0.001, unpaired two-tailed Student’s t test.\nas §2"}, "[3]": {"experiment": "plasma protein binding in human plasma"}, "[4]": {"system": "pY88-H4 marks at CDC20, CCNB1 and CCNB2", "experiment": "ChIP-qPCR with pY88-H4 antibody at CDC20, CCNB1 and CCNB2 loci", "type": "cell-based", "conditions": "breast cancer cell lines", "experimental": "as §1, with “For (A), representative images of three independent experiments are shown. For (D–F), data are represented as the mean ± SEM. *p < 0.05, **p < 0.01, ***p < 0.001, unpaired two-tailed Student’s t test.” left out\nCell pellets were resuspended in RLB buffer and sonicated and the soluble chromatin was incubated with antibodies and Protein-G/A magnetic beads. […] The size and quality of the library was evaluated using the Agilent BioAnalyzer (Agilent Technologies, Inc., Santa Clara, CA), and the library was quantitated with the Kapa Library Quantification Kit. Each enriched DNA library was then sequenced on an Illumina NextSeq 500 sequencer to generate 40–50 million 75-base paired-end reads (Illumina, Inc., San Diego, CA). […]\nReal-time quantitative PCR analyses were performed using the ABI PRISM 7900HT Sequence Detection System (Applied Biosystems) as described earlier. […]"}}, "data": [{"compound": "CN1CCN(c2ccc(Nc3ncc(Cl)c(NC[C@H]4CCCO4)n3)cc2)CC1", "note": "[(R)-9b]", "values": [{"measurement": "pY88-H4 epigenetic marks (immunoblot)", "setting": "[1]", "result": "significantly compromised"}, {"measurement": "pY284-ACK1 levels (ACK1 activation)", "setting": "[2]", "result": "reduced pY284-ACK1 levels"}, {"measurement": "remaining after 6 h of treatment", "setting": "[3]; 6 h", "result": "over 96%"}, {"measurement": "fraction unbound", "setting": "[3]; human, plasma, Plasma Protein Binding (PPB)", "result": 0.17}, {"measurement": "pY88-H4 marks at CDC20, CCNB1 and CCNB2 gene loci (ChIP-qPCR)", "setting": "[4]", "result": "significantly compromised"}]}]}
